# Non-standard residues stand in square brackets, D forms with d. Residues, ends and D or L forms follow the SMILES beside them. Sta = CC(C)C[C@H](N)[C@@H](O)CC(=O)O; N(iPr)Gly = CC(C)NCC(=O)O
# Assays:
# βAP production = assay: Assay 4: βAP production inhibition (cellular assay, ELISA of conditioned media, normalised to MTT); format: cell-based, human; Chinese hamster; conditions: compound at 10 µg/mL; 293 751 SWE and CHO 751 SWE cells (table does not say which); βAP ELISA divided by MTT result, relative to drug-free control; mean and standard deviation of at least six replicate assays
# Description: The test system used to measure the βAP production inhibition activity is typically a cellular assay or an animal model. Preferably, the βAP production inhibition activity is obtained by direct measurement of βAP production in a cellular assay, as described in WO9410569, the full disclosure of which is incorporated herein by reference. This assay is exemplified in Assay 4, below.
# Two cell lines (human kidney cell line 293 and Chinese hamster ovary cell line CHO) were stably transfected with the gene for APP-751 containing the double mutation Lys₆₅₁-Met₆₅₂ to Asn₆₅₁-Leu₆₅₂ (APP-751 numbering) commonly called the Swedish mutation using the method described in Citron et al., (1992) Nature 360:672-674. The transfected cell lines were designated as 293 751 SWE and CHO 751 SWE, and were plated in Corning 96 well plates at 2.5x10⁴ or 1x10⁴ cells per well respectively in Dulbecco's minimal essential media plus 10% fetal bovine serum. Following overnight incubation at 37°C in an incubator equilibrated with 10% carbon dioxide (CO₂), the media were removed and replaced with 200 µL per well of media containing an aspartyl protease inhibitor. After a two hour pretreatment period, the media were again removed and replaced with fresh media containing the aspartyl protease inhibitor and the cells were incubated for an additional two hours.
# After treatment, plates were centrifuged in a Beckman GPR at 1200 rpm for five minutes at room temperature to pellet cellular debris from the conditioned media. From each well, 100µL of conditioned media were transferred into an ELISA plate precoated with antibody 266 against βAP-13-28 (Seubert et al., supra.) and stored at 4°C overnight. An ELISA assay employing labelled antibody 6C6 (against βAP-1-16) was run the next day to measure the amount of βAP produced.
# Cytotoxic effects of the compounds were measured by a modification of the method of Hansen et al., (1989) J. Immun. Meth. 119:203-210. To the cells remaining in the tissue culture plate, was added 25 µL of a 3,(4,5-dimethylthiazol-2-yl)2,5-diphenyltetrazolium bromide (MTT) stock solution (5 mg/mL) to a final concentration of 1 mg/mL. Cells were incubated at 37°C for one hour, and cellular activity was stopped by the addition of an equal volume of MTT lysis buffer (20% w/v sodium dodecylsulfate in 50% DMF, pH 4.7). Complete extraction was achieved by overnight shaking at room temperature. The difference in the OD562nm and the OD650nm was measured in a Molecular Devices UVmax microplate reader as an indicator of the cellular viability.
# The results of the βAP ELISA were fit to a standard curve and expressed as ng/mL βAP peptide. In order to normalize for cytotoxicity, these βAP results were divided by the MTT results and expressed as a percentage of the results from a drug-free control.
# The compounds prepared above in Examples 9, 12, 13, 20-23, 23A, 24, 30, 41-43, 45, and 48 were assayed for βAP production inhibition activity in cells at 10 µg/mL using Assay 4. The results presented in Assay Table 4, below, are the mean and standard deviation of at least six replicate assays. Assay Table 4
# Human liver cathepsin D = Human liver cathepsin D (Homo sapiens, UniProt P07339); assay: Assay 2: cathepsin D inhibition activity (non-cellular fluorometric assay); format: biochemical; parameters: Human liver cathepsin D (Athens Research and Technology, Athens, GA); purchased Athens Research and Technology, Athens, GA; conditions: compound at 10 µg/mL; percent inhibition of control activity; mean and standard deviation of at least four replicate assays
# Sequence of Human liver cathepsin D (P07339 169-412 limits assumed): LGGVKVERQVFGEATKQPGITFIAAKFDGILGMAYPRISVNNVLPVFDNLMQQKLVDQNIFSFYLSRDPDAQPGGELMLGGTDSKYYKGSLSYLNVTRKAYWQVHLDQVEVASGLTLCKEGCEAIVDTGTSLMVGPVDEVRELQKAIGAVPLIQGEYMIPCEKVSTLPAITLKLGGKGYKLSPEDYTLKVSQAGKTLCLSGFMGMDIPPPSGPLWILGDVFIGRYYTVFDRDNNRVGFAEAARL
# Sequence of Human liver cathepsin D (P07339 65-162 limits assumed): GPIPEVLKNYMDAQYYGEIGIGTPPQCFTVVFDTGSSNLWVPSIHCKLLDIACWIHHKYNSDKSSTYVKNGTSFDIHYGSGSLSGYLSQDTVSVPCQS
# Protocol: A second non-cellular assay for determining in vitro aspartyl protease inhibitory activity utilizes a microtiter plate, where a suitable aspartyl protease, such as cathepsin D is added to each well together with controls. A suitable fluorometric substrate is added to each well. The resultant reaction mixture is allowed to react for a preselected time, e.g., 30 minutes. After enzyme activity is terminated, the substrate or its product may be determined fluorometrically and then the protease inhibition activity may be calculated based on the rates of substrate turnover. This assay is exemplified in Assay 2, below.
# A fluorometric assay was adapted from the method disclosed by Murakami et al., (1981) Anal. Biochem. 110:232-239 for measuring renin activity. Human liver cathepsin D (Athens Research and Technology, Athens, GA) was diluted in assay buffer, 200mM NaOAc, pH 4.5, 150mM NaCl to 500 ng/mL and then 100 µL of this cathepsin D solution was added to each well of a 96 well plate with the exception of control wells which received just 100 µL of assay buffer. Compound stocks were prepared by dissolving an aspartyl protease inhibitor in DMSO for each concentration tested in the assay and then 5 µL of compound stock was added to each of the wells prepared above. Blank and enzyme control wells each received 5 µL of the DMSO vehicle.
# Following a ten minute incubation at 25°C to allow enzyme/compound interaction, 5 µL of 500µM fluorometric substrate (Suc-Arg-Pro-Phe-His-Leu-Leu-Val-Try-AMC [SEQ ID NO:4], Bachem Biosciences, Philadelphia, PA) in DMSO was added per well to initiate the reaction. After incubation at 37°C for 30 minutes, cathepsin D activity was terminated by the addition of 100 µL per well of 400 mU/mL microsomal leucine aminopeptidase (EC 3.4.11.2, Sigma, St. Louis, MO) in 1M Tris-HCl, pH 8.0.
# The plates were then analyzed in a fluorometer (CytoFluor 2350, Millipore, Bedford, MA) with an excitation wavelength of 360nm and an emission wavelength of 460nm, in order to check for background fluorescence due to test compounds. Following a two hour incubation at 37°C, to allow the aminopeptidase to release the fluorophore, 7-amido-4-methylcoumarin (AMC) from the products of cathepsin D cleavage, the plates were again analyzed in the fluorometer. In order to check for potential false positives, i.e., inhibitors of microsomal leucine aminopeptidase, residual aminopeptidase activity was monitored directly in each well by the addition of 20 µL/well of 2.5mM Leu-pNA (Bachem Biosciences, Philadelphia, PA) in 10% DMSO. Aminopeptidase activity was measured as an increase in the absorbance at 405nm in a UVmax microplate reader (Molecular Devices, Menlo Park, CA).
# The compounds prepared in Examples 9, 12, 13, 20-23, 23A, 24, 30, 41-43, 45, and 48 were assayed at 10 µg/mL for cathepsin D inhibition activity using Assay 2. Cathepsin D activity was linear under these conditions and the results are expressed as percent inhibition of the control activity in Assay Table 2, below. All results presented are the mean and standard deviation of at least four replicate assays. Assay Table 2
# Human brain cathepsin D = target: T1, Human brain cathepsin D (Homo sapiens, UniProt P07339); assay: Assay 1: cathepsin D inhibition activity (non-cellular assay, porcine renin tetradecapeptide substrate, RP-HPLC); format: biochemical; conditions: purified human brain cathepsin D, pH 4.5, 44 µM porcine renin tetradecapeptide, 37°C
# T1 construct: Human brain cathepsin D was purified from frozen post-mortem cortex; from tissue; host or cells: human post-mortem brain cortex
# T1 sequence (P07339 65-412): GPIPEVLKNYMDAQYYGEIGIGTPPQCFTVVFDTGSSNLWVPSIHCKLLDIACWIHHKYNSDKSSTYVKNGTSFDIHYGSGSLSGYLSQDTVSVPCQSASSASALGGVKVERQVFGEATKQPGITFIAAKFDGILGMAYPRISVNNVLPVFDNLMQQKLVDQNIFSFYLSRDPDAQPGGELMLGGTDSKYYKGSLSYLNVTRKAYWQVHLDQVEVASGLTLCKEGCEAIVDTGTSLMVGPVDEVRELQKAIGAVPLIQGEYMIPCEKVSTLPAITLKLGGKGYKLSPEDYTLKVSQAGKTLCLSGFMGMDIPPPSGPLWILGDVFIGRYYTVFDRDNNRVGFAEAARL
# Protocol: An example of a non-cellular assay that may be used to determine in vitro aspartyl protease inhibitory activity reacts partially purified human brain cathepsin D with a substrate, e.g., porcine renin tetradecapeptide. The resultant reaction mixture is divided into portions and each portion is incubated for a different period of time. After the reaction is stopped, the turnover of substrate in each portion is determined using reverse-phase HPLC. Protease inhibition activity may be calculated based on the rates of substrate turnover. This assay is exemplified in Assay 1, below. Human brain cathepsin D was purified from frozen post-mortem cortex substantially in accordance with the method of Nixon and Morotta, (1984) J. Neurochem. 43:507-516. The cortex material was prepared and applied to a DEAE-Sepharose® column. The flow through fraction was dialyzed against 50mM Tris-HCl, pH 7.5, and applied to concanavalin A Sepharose® and eluted with 50mM Tris, pH 7.5, 0.5M methyl α-D-mannopyranoside. The eluted cathepsin D activity was dialyzed against 25mM Tris, pH 7.5, and stored at -40°C (Con A pool) until use. For each assay, 50 μL of the Con A pool was diluted to 270 μL in 200mM sodium citrate, pH 4.5, 150mM sodium chloride (NaCl), and incubated for 10 minutes at 4°C with 15 μL of compound stock diluted in dimethylsulfoxide (DMSO). The substrate, porcine renin tetradecapeptide ([…] [SEQ ID NO:3], Bachem Bioscience, Inc., Philadelphia, PA), was added to each reaction mixture to yield a final concentration of 44 μM in a total volume of 300 μL. The samples were incubated at 37°C for 0, 10, 20, or 30 minutes, and then boiled for 5 minutes to stop the reaction. The samples were centrifuged in a microcentrifuge for 10 minutes at 14,000 rpm at 4°C. After centrifugation, 200 μL of each reaction was injected onto […] column (Vydac, Hesperia, CA) with a Perkin Elmer ISS 100 autosampler and eluted with a gradient eluent of 0-50% CH3CN in 0.1% CF3CO2H at 2 mL/min. Peptide product peaks were monitored at 220nm with a Perkin Elmer LC 95 detector and integrated with Rainin Dynamax software in order to quantitate activity.
molecule,measurement,setting,value
"CC(C)[C@H](NC(=O)c1cnc2ccccc2n1)C(=O)N[C@@H](Cc1ccccc1)[C@H](O)Cc1ccccc1C(=O)NC(C)(C)C [Example 12, [1S-(1R*,4R*,5S*)]-N-(1-Isopropyl-2-oxo-3-aza-4-phenylmethyl-5-hydroxy-6-(2-(1-t-butylamino-1-oxomethyl)phenyl)hexyl)-2-quinoxalinyl acetamide]",inhibition at 10 µg/mL,βAP production,12.4 ± 6%
same,inhibition at 10 µg/mL,Human liver cathepsin D,12.4 ± 3.7%
CC(C)[C@H](NC(=O)c1ccc2ccccc2c1)C(=O)N[C@@H](Cc1ccccc1)[C@H](O)Cc1ccccc1C(=O)NC(C)(C)C [Example 13],inhibition at 10 µg/mL,βAP production,91.4 ± 3.9%
same,inhibition at 10 µg/mL,Human liver cathepsin D,91.4 ± 0.4%
"CC(C)C[C@H](NC(=O)c1ccc2ccccc2n1)C(=O)N[C@@H](Cc1ccccc1)[C@H](O)Cc1ccccc1C(=O)NC(C)(C)C [Example 20, [1S-(1R*,4R*,5S*)]-N-(1-(2-Methylpropyl)-2-oxo-3-aza-4-phenylmethyl-5-hydroxy-6-(2-(1-t-butylamino-1-oxomethyl)phenyl)hexyl)-quinolin-2-yl carboxamide]",inhibition at 10 µg/mL,βAP production,94.8 ± 3.1%
same,inhibition at 10 µg/mL,Human liver cathepsin D,94.8 ± 0.6%
"CC(C)[C@H](NC(=O)OC(C)(C)C)C(=O)N[C@@H](Cc1ccccc1)[C@H](O)Cc1ccccc1C(=O)NC(C)(C)C [Example 23A, [2R-(2R*,3S*,6S*)]-N-t-Butyl-2-[2-hydroxy-3-phenylmethyl-4-aza-5-oxo-6-N(t-butoxycarbonyl)amino-7-methyl]octyl benzamide]",inhibition at 10 µg/mL,βAP production,32.5 ± 3.3%
same,inhibition at 10 µg/mL,Human liver cathepsin D,32.5 ± 4.7%
"CC[C@H](C)[C@H](NC(=O)C[C@H](O)[C@H](CC(C)C)NC(=O)CNC(C)C)C(=O)N[C@@H](C)C(=O)N[C@H](C(=O)O)[C@@H](C)O [Example 44, (CH3)2CH-Gly-Sta-Ile-Ala-Thr-OH] (H-[N(iPr)Gly][Sta]IAT-OH)",IC50,Human brain cathepsin D,> 100 nM
"CC(C)C[C@H](NC(=O)[C@@H](NC(=O)CNC(C)C)C(C)C)[C@@H](O)CC(=O)N[C@@H](C)C(=O)N[C@H](C(=O)O)[C@@H](C)O [Example 46, (CH3)2CH-Gly-Val-Sta-Ala-Thr-OH] (H-[N(iPr)Gly]V[Sta]AT-OH)",IC50,Human brain cathepsin D,> 250 nM
"CC[C@H](C)[C@H](NC(=O)[C@@H](NC(=O)[C@@H](NC(=O)CNC(C)C)C(C)C)C(C)C)C(=O)N[C@@H](CC(C)C)[C@@H](O)CC(=O)N[C@H](C(=O)O)[C@@H](C)O [Example 47, (CH3)2CH-Gly-Val-Val-Ile-Sta-Thr-OH] (H-[N(iPr)Gly]VVI[Sta]T-OH)",IC50,Human brain cathepsin D,> 250 nM
"[1S-(1R*,4R*,5S*)]-N-(1-(Propyl)-2-oxo-3-aza-4-phenylmethyl-5-hydroxy-6-(2-(1-t-butylamino-1-oxomethyl)phenyl)hexyl)-quinolin-2-yl carboxamide [Example 21]",βAP Production Inhibition,βAP production,78.3 ± 1.5%
same,Cathepsin D Inhibition,Human liver cathepsin D,78.3 ± 3.8%

# Source: patent EP0652009A1, “Identification and use of protease inhibitors” (ELI LILLY AND COMPANY, priority 1993, dated 1995)
